Source: BindingDB's records for patent US20250221979 (Shouyao Holdings (Beijing) Co., 2025)

Target: S-adenosylmethionine synthase isoform type-2 (Homo sapiens, UniProt P31153)
Assay: In Vitro Enzymatic Inhibition Activity Assay
Procedure: Enzymatic activity assays of compounds of this patent against MAT2A (to detect half inhibitory concentration IC50 values of the compounds) were performed using the phosphate detection kit PiColorLockTM (ab270004, purchased from Abcam). This method utilized the principle that purified human MAT2A enzyme catalyzes the formation of S-adenosylmethionine (SAM) from L-methionine and ATP to release free phosphate, and used the spectrophotometric method to quantify phosphate, so as to determine the enzymatic activity of MAT2A. Compounds were diluted in a 10-fold gradient starting at 1 mM with 100% DMSO (for a total of 8 concentrations) and 2 μL of each concentration was added to 48 μL of reaction buffer (50 mM Tris-HCl PH 7.5, 50 mM KCl, 10 mM MgCl2, 0.01% Brij-35, 0.01% BSA, 1 mM DTT) and mixed well. The final diluted compound was prepared, and 5 μL of MAT2A enzyme (final concentration of 10 nM), 5 μL of ATP (final concentration of 50 μM), and 5 μL of L-methionine (final concentration of 100 μM) were added to each well of a 384-well plate (#3701, purchased from CORNING). After the 384-well plate was placed in the incubator at 23° C. for 6 h, 5 μL of PiColorLock reagent diluted Accelerator (dilution ratio 1:100) was added to each well, and the reaction was stopped by incubating in the incubator at 23° C. for 5 min. 2 μL of Stabiliser was added, the absorbance was read at 630 nm on BMG CLARIOstar, and the IC50 value of the compound was calculated by using GraphPad Prism software.

S-adenosylmethionine synthase isoform type-2, sequence (P31153 whole entry, canonical isoform): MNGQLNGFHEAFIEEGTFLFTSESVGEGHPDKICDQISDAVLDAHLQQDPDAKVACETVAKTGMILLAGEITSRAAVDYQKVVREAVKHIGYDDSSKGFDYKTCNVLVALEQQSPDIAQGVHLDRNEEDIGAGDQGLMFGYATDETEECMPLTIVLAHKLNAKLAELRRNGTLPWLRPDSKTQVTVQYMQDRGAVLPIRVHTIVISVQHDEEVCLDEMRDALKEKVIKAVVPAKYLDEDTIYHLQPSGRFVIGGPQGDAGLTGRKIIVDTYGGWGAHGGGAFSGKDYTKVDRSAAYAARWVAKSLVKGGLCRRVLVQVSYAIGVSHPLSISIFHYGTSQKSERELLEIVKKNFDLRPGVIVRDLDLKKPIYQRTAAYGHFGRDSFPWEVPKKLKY

IC50 [nM] | Compound
1.19 | COC(=O)c1c(N)c2ccc(OC(F)F)cc2n(-c2ccc(N)cc2)c1=O [US20250221979, Example 320]
1.19 | COC(=O)c1c(N)c2ncc(C3CC3)nc2n(-c2ccc(C(C)O)cc2)c1=O (stereo not drawn) [US20250221979, Example 356]
1.96 | COC(=O)c1c(N)c2ccc(OC(F)F)nc2n(-c2ccc([C@@H](C)O)cc2)c1=O [US20250221979, Example 372]
